# Data published in patent publication US20060041013A1, “Alanosine formulations and methods of use” (priority 2004, published 2006).
# Like-named read-outs stand apart in the source and are kept apart here.
# Assays:
# BX-PC3 [1] = assay: Drug combinations with L-alanosine, MTT assay; type: cell-based; conditions: combination with L-alanosine, three days
# Protocol: (§1) In each experiment, tumor cells from lung, pancreatic, or mesothelial tumor cell lines were plated in 96-well plates at 5,000 cells/well in 100 μL media. The media for all assays except the Alimta® studies was RPMI-1640 and 10% horse serum. For the Alimta® studies, the media used was RPMI 1640 with dialyzed fetal bovine serum. All media contained 100 Units/mL penicillin and 100 μg/mL streptomycin. The cells were allowed to adhere for 18 hours at 37° C./5.0% CO2. […] After drug addition, cells were incubated three days at 37° C., 5.0% CO2. Cell viability was assayed using a standard MTT assay, as follows: 10 μl of 12 mM 3-[4,5-dimethylthiazol-2-yl]-2,5-diphenyltetrazolium bromide (MTT) (Sigma) were added to each well. The cells were incubated at 37° C., 5% CO2 for 4 to 6 hours. 100 μl of 20% SDS, 0.015 M HCl were added to each well and the cells were incubated overnight. Cytotoxicity was measured by reading absorbance at 595 nm.
# (§2) Data analysis was performed using GraphPad Prism version 3.0 (GraphPad Software, San Diego, Calif. USA).
# NCI-H2452 [2] = assay: Drug combinations with L-alanosine, MTT assay; type: cell-based; conditions: combination with L-alanosine, mesothelioma, three days
# Protocol: as §1, §2
# PanC1 = assay: Drug combinations with L-alanosine, MTT assay; type: cell-based; conditions: combination with L-alanosine, pancreatic, three days
# Protocol: as §1, §2
# A549 [3] = assay: Docetaxel, 5-FU, SDX-102 alone or combined, MTT/MTS cytotoxicity (Example 4); type: cell-based; conditions: Homo sapiens; A549, NSCLC, single agent, MTT 72 hours
# NCI-H292 [4] = assay: as above; type: cell-based; conditions: Homo sapiens; NCI-H292, NSCLC, single agent, MTT 72 hours
# NCI-H322M = assay: as above; type: cell-based; conditions: Homo sapiens, NSCLC, single agent, MTT 72 hours
# PANC-1 = assay: as above; type: cell-based; conditions: Homo sapiens; PANC-1, Pancreatic, single agent, MTT 72 hours
# BX-PC3 [5] = assay: as above; type: cell-based; conditions: Homo sapiens, BXPC-3; BX-PC3, Pancreatic, single agent, MTT 72 hours
# NCI-H2452 [6] = assay: as above; type: cell-based; conditions: Homo sapiens; NCI-H2452, Mesothelioma, single agent, MTT 72 hours
# A549 [7] = assay: Drug combinations with L-alanosine, MTT assay; type: cell-based; conditions: combination with L-alanosine, NSCLC, three days
# Protocol: as §1, §2
# NCI-H2322M = assay: Drug combinations with L-alanosine, MTT assay; type: cell-based; conditions: combination with L-alanosine, ratio drug:alanosine 1:1000; NSCLC; three days
# Protocol: as §1, §2
# NCI-H292 [8] = assay: Drug combinations with L-alanosine, MTT assay; type: cell-based; conditions: combination with L-alanosine, ratio drug:alanosine 1:1000; NSCLC; three days
# Protocol: as §1, §2
# H-Meso-1 = assay: Mesothelioma xenograft model (H-Meso-1) in SCID mice; type: in vivo; conditions: thirty-one days following treatment; docetaxel 10 mg/kg intraperitoneally daily Mon-Fri, SDX-102 50 mg/kg osmotic pump; start 100 mm^3; control 1272
# A549 NSCLC xenografts = assay: MTAP-negative A549 NSCLC xenografts in SCID mice; type: in vivo
# A-427 [9] = assay: Intracellular ATP levels (Cell-Titer Glow); type: cell-based
# Protocol: (§3) MTAP status was determined using immunoblot analyses and correlated with the ability of an MTA analog to rescue ATP levels in cell lines treated with SDX-102. ATP levels were measured using Cell-Titer Glow™ (Promega) after a 3 day treatment with titrated concentrations of either SDX-102 or pemetrexed.
# (§4) ATP values measured using Cell-Titer Glow™ (Promega) after 3 days exposure to the MTA analog. Solid lines in FIG. 8 represent the effect of titrations of SDX-102 from 0.05 μM-20 μM (FIG. 8A) or pemetrexed from 0.01 μM-5 μM (FIG. 8B) on cellular ATP levels. The dotted lines represent the effect of a single concentration of SDX-102 (10 μM) or pemetrexed (2.5 μM) with a titration of an MTA analog from 0.1 μM-50 μM.
# HS-766T [10] = assay: Intracellular ATP levels (Cell-Titer Glow); type: cell-based
# Protocol: as §3, §4
# NCI-H226 [11] = assay: Intracellular ATP levels (Cell-Titer Glow); type: cell-based
# Protocol: as §3, §4
# A-594 = assay: Intracellular ATP levels (Cell-Titer Glow); type: cell-based; conditions: 72 h; A-594, NSCLC, MTAP Negative; 3 day treatment
# Protocol: as §3
# BxPC3 [12] = assay: Intracellular ATP levels (Cell-Titer Glow); type: cell-based; conditions: Homo sapiens, BXPC-3, 72 h; BxPC3, Pancreatic, MTAP Negative; 3 day treatment
# Protocol: as §3
# NCI-H2452 [13] = assay: Intracellular ATP levels (Cell-Titer Glow); type: cell-based; conditions: Homo sapiens
# Protocol: as §3
# BxPC3 [14] = assay: Cell viability MTT assay (Example 3); type: cell-based; conditions: Homo sapiens, BXPC-3, 72 h; BxPC3, Pancreatic, MTAP Negative; 3 days
# HS-766T [15] = assay: Cell viability MTT assay (Example 3); type: cell-based
# [16] = Cell viability MTT assay (Example 3); type: cell-based; conditions: 72 h; A-594, NSCLC, MTAP Negative; 3 days
# A-427 [17] = assay: Cell viability MTT assay (Example 3); type: cell-based; conditions: Homo sapiens, 72 h; A-427, NSCLC, MTAP Positive; 3 days
# NCI-H2452 [18] = assay: Cell viability MTT assay (Example 3); type: cell-based; conditions: Homo sapiens, 72 h; NCI-H2452, Mesothelioma, MTAP Negative; 3 days
# NCI-H226 [19] = assay: Cell viability MTT assay (Example 3); type: cell-based; conditions: Homo sapiens, 72 h; NCI-H226, Mesothelioma, MTAP Positive; 3 days
# NCI-H2452 [20] = tested on: NCI-H2452
# [21] = ratio drug:alanosine 5:1, pancreatic
# [22] = ratio drug:alanosine 1:4, pancreas
# [23] = ratio drug:alanosine 1:100, pancreas
smiles,measurement,setting,value
"O=c1[nH]cc(F)c(=O)[nH]1 [5-FU, 5-fluorouracil]",EC75 CI value,BX-PC3 [1]; [21],0.8
same,EC75 Effect,BX-PC3 [1]; [21],moderate
same,EC90 Effect,BX-PC3 [1]; [21],moderate
same,EC75 CI value,NCI-H2452 [2]; ratio drug:alanosine 1:1,0.5
same,EC75 Effect,NCI-H2452 [2]; ratio drug:alanosine 1:1,synergism
same,EC90 Effect,NCI-H2452 [2]; ratio drug:alanosine 1:1,synergism
same,EC75 CI value,PanC1; ratio drug:alanosine 1:1,0.6
same,EC75 Effect,PanC1; ratio drug:alanosine 1:1,synergism
same,EC90 Effect,PanC1; ratio drug:alanosine 1:1,synergism
same,IC50,A549 [3],1000 ± 600 nM
same,IC50,NCI-H292 [4],3000 ± 2000 nM
same,IC50,NCI-H322M,6 ± 5 µM
same,IC50,PANC-1,14 ± 4 µM
same,IC50,BX-PC3 [5],3000 ± 2000 nM
same,IC50,NCI-H2452 [6],5 ± 2 µM
"COc1cc2ncnc(Nc3ccc(F)c(Cl)c3)c2cc1OCCCN1CCOCC1 [Iressa ®, gefitinib]",EC75 CI value,BX-PC3 [1]; [22],0.29
same,EC75 Effect,BX-PC3 [1]; [22],strong
same,EC90 Effect,BX-PC3 [1]; [22],strong
CC(=O)O[C@@]12CO[C@@H]1C[C@H](O)[C@@]1(C)C(=O)[C@H](O)C3=C(C)[C@@H](OC(=O)[C@H](O)[C@@H](NC(=O)OC(C)(C)C)c4ccccc4)C[C@@](O)([C@@H](OC(=O)c4ccccc4)[C@H]21)C3(C)C [docetaxel],EC75 CI value,A549 [7]; ratio drug:alanosine 1:100,0.8
same,EC75 Effect,A549 [7]; ratio drug:alanosine 1:100,moderate
same,EC90 Effect,A549 [7]; ratio drug:alanosine 1:100,moderate
same,EC75 CI value,NCI-H2322M,0.9
same,EC90 Effect,NCI-H2322M,synergism
same,EC75 CI value,NCI-H2452 [2]; ratio drug:alanosine 1:1000,0.8
same,EC75 Effect,NCI-H2452 [2]; ratio drug:alanosine 1:1000,moderate
same,EC90 Effect,NCI-H2452 [2]; ratio drug:alanosine 1:1000,synergism
same,EC75 CI value,NCI-H292 [8],1.1
same,EC75 Effect,NCI-H292 [8],additive
same,EC90 Effect,NCI-H292 [8],additive
same,EC75 CI value,PanC1; ratio drug:alanosine 1:1000,0.6
same,EC75 Effect,PanC1; ratio drug:alanosine 1:1000,synergism
same,EC90 Effect,PanC1; ratio drug:alanosine 1:1000,synergism
same,IC50,A549 [3],5000 ± 4000 nM
same,IC50,NCI-H292 [4],200 ± 50 nM
same,IC50,NCI-H322M,6 ± 2 µM
same,IC50,PANC-1,30 ± 6 µM
same,IC50,BX-PC3 [5],1200 ± 800 nM
same,IC50,NCI-H2452 [6],3 ± 2 µM
same,mean tumor volume,H-Meso-1,655 mm^3
Nc1ccn([C@@H]2O[C@H](CO)[C@@H](O)C2(F)F)c(=O)n1 [gemcitabine],EC75 CI value,NCI-H2452 [2]; ratio drug:alanosine 1:100,0.6
same,EC75 Effect,NCI-H2452 [2]; ratio drug:alanosine 1:100,synergism
same,EC90 Effect,NCI-H2452 [2]; ratio drug:alanosine 1:100,synergism
CC(=O)O[C@H]1C(=O)[C@@]2(C)[C@H]([C@H](OC(=O)c3ccccc3)[C@]3(O)C[C@H](OC(=O)[C@H](O)[C@@H](NC(=O)c4ccccc4)c4ccccc4)C(C)=C1C3(C)C)[C@]1(OC(C)=O)CO[C@@H]1C[C@@H]2O [paclitaxel],tumor growth inhibition,"A549 NSCLC xenografts; 60 days monitoring, doses as administered",inhibited tumor growth
same,time for the tumors to increase 10-fold in size,"A549 NSCLC xenografts; L-alanosine 40 then 20 mg/kg/day, Taxol 16 mg/kg/day i.p., two cycles (day 0, day 41), control 32.2",43.2 days
same,percent mean change in tumor volume,A549 NSCLC xenografts; day 46,1449±236%
Nc1nc2[nH]cc(CCc3ccc(C(=O)N[C@@H](CCC(=O)O)C(=O)O)cc3)c2c(=O)[nH]1 [pemetrexed],EC75 CI value,A549 [7]; ratio drug:alanosine 1:10,0.9
same,EC75 Effect,A549 [7]; ratio drug:alanosine 1:10,slight
same,EC90 Effect,A549 [7]; ratio drug:alanosine 1:10,Slight
same,EC75 CI value,NCI-H2452 [2]; ratio drug:alanosine 1:1,0.3
same,EC75 Effect,NCI-H2452 [2]; ratio drug:alanosine 1:1,strong
same,EC90 Effect,NCI-H2452 [2]; ratio drug:alanosine 1:1,strong
same,"ATP levels restored by addition of an MTAP substrate, of level in control cells",A-427 [9]; A-427 (MTAP-positive) treated with pemetrexed,more than 85%
same,IC50,"A-427 [9]; Homo sapiens, 72 h, A-427, NSCLC, MTAP Positive, 3 day treatment",5 µM
same,"ATP levels restored by addition of an MTAP substrate, of level in control cells",HS-766T [10]; HS-766T (MTAP-positive) treated with pemetrexed,more than 85%
same,IC50,"HS-766T [10]; Hs766T, 72 h, HS-766T, Pancreatic, MTAP Positive, 3 day treatment",800 nM
same,IC50,"NCI-H226 [11]; Homo sapiens, 72 h, NCI-H226, Mesothelioma, MTAP Positive, 3 day treatment",1000 nM
same,"ATP levels restored by addition of an MTAP substrate, of level in control cells",NCI-H226 [11]; NCI-H226 (MTAP-positive) treated with pemetrexed,more than 85%
same,IC50,A-594,> 20 µM
same,IC50,BxPC3 [12],5 µM
same,IC50,"NCI-H2452 [13]; 72 h, NCI-H2452, Mesothelioma, MTAP Negative, 3 day treatment, read-out: ATP IC50",100 nM
same,IC50,"NCI-H2452 [13]; NCI-H2452, 72 hours incubation, read-out: concentration causing 50% reduction of intracellular ATP",80 nM
same,IC50,BxPC3 [14],50 nM
same,IC50,"HS-766T [15]; Hs766T, 72 h, Pancreatic, MTAP Positive, 3 days",> 20 µM
same,rescue by MTAP substrate from loss of viability,HS-766T [15]; MTT assay,fully rescue
same,IC50,[16],500 nM
same,IC50,A-427 [17],3000 nM
same,IC50,NCI-H2452 [18],50 nM
same,IC50,NCI-H226 [19],1000 nM
same,IC75,"NCI-H2452 [20]; NCI-H2452, incubation with 200 nM L-alanosine",15 nM
same,IC75,"NCI-H2452 [20]; NCI-H2452, pemetrexed alone",200 nM
CCC1=C[C@@H]2CN(C1)Cc1c([nH]c3ccccc13)[C@@](C(=O)OC)(c1cc3c(cc1OC)N(C)[C@H]1[C@@](O)(C(=O)OC)[C@H](OC(C)=O)[C@]4(CC)C=CCN5CC[C@]31[C@@H]54)C2 [vinorelbine],EC75 CI value,BX-PC3 [1]; [23],0.6
same,EC75 Effect,BX-PC3 [1]; [23],synergism
same,EC90 Effect,BX-PC3 [1]; [23],synergism
